Experimental data: ChEMBL document CHEMBL1240300, “Diversity-oriented synthesis: exploring the intersections between chemistry and biology” (Nat Chem Biol, 2005)
Each block holds one molecule with its values, some of them ahead of it.

Legend:
[1] = target: T1, Glycogen synthase kinase-3 beta (Mus musculus, UniProt Q9WV60); assay: Inhibition of GSK-3 beta in mouse D3 cells; format: cell-based
[2] = target: T1, Glycogen synthase kinase-3 beta; assay: Inhibition of GSK-3 beta in mouse D3 cells assessed as induction of neuron specific marker microtubule-associated protein 2 by immunofluorescence method; format: cell-based
[3] = target: T1, Glycogen synthase kinase-3 beta; assay: Inhibition of GSK-3 beta in mouse D3 cells assessed as induction of neuron specific marker neurofilament-M by immunofluorescence method; format: cell-based
[4] = target: T1, Glycogen synthase kinase-3 beta; assay: Inhibition of GSK-3 beta in mouse D3 cells assessed as induction of neuron specific marker beta3-tubulin by immunofluorescence method; format: cell-based
[5] = target: Myc proto-oncogene protein/Transcription factor AP-1 (Gallus gallus, UniProt P01109+P18870); assay: Inhibition of Myc-Jun protein - protein interaction in chicken embryo fibroblasts assessed as inhibition of cell focus formation11
[6] = target: T1, Glycogen synthase kinase-3 beta; assay: Binding affinity to GSK-3 beta in mouse D3 cells; format: cell-based
[7] = Induction of cardiomyogenesis in mouse D3 cells assessed as induction of cadiomyocyte specific marker myosin heavy chain by immunofluorescence method; format: functional, cell-based
[8] = Induction of cardiomyogenesis in mouse D3 cells assessed as induction of cadiomyocyte specific marker MEF2 by immunofluorescence method; format: functional, cell-based
Histone deacetylase = assay: Inhibition of HDAC in human A549 cells assessed as induction of histone acetylation by fluorescence microscopy; format: cell-based
C3H 10T1/2 = assay: Induction of osteogenesis in mouse C3H10T1/2 cells assessed as induction of osteoblast specific marker alkaline phosphatase by immunofluorescence method; format: functional, cell-based
[9] = Binding affinity to yeast Ure2p; parameters: species or system Saccharomyces cerevisiae

T1 sequence (Q9WV60 whole entry): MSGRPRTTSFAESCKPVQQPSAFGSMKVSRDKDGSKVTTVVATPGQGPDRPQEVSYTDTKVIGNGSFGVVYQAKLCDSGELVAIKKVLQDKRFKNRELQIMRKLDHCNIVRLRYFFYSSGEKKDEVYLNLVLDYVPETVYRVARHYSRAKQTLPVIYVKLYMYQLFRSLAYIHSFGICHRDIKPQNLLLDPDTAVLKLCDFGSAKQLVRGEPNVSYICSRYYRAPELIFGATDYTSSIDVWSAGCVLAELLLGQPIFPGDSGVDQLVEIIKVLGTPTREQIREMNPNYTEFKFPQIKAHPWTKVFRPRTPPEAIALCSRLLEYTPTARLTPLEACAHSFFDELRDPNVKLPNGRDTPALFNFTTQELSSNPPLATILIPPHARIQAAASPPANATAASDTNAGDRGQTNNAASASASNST
Chain of Myc proto-oncogene protein/Transcription factor AP-1 (P18870 whole entry): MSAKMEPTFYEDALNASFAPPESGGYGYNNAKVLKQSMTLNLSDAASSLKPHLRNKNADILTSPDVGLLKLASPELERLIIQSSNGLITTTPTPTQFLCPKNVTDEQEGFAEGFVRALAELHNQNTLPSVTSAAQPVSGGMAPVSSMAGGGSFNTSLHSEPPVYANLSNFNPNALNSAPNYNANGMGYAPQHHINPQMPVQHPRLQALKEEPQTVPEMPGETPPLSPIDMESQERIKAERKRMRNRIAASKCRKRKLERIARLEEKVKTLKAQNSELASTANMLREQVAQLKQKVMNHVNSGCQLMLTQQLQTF
Chain of Myc proto-oncogene protein/Transcription factor AP-1 (P01109 whole entry): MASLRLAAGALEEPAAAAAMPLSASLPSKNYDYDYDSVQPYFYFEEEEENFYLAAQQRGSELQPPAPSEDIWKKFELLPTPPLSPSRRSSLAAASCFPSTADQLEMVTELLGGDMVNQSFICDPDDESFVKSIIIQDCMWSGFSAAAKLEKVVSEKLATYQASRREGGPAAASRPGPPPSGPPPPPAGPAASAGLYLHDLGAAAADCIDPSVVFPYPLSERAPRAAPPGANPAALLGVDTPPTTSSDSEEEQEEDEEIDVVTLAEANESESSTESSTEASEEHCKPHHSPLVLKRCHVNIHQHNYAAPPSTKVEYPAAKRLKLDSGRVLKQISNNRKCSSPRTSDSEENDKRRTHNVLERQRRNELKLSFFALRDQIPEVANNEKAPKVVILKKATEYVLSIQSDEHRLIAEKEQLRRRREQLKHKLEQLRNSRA

SMILES: Nc1cccc(-c2cc3c(Oc4cccc(O)c4)ncnc3[nH]2)c1
Kd [1]: 0.126 µM
EC50 [2]: 1 µM
EC50 [3]: 1 µM
EC50 [4]: 1 µM
IC50 [5]: 15 µM
IC50 [6]: 0.03 µM

SMILES: COc1ccc(Nc2nccc(NCCO)n2)cc1 [CARDIOGENOL C]
EC50 [7]: 0.1 µM
EC50 [8]: 0.1 µM

SMILES: Nc1ccccc1NC(=O)CCCCCC(=O)Nc1cccc([C@@H]2O[C@H](CN3CCN(Cc4ccccc4)CC3)C[C@H](c3ccc(CO)cc3)O2)c1 [HISTACIN]
EC50 (Histone deacetylase): 34 µM

SMILES: c1ccc2c(Oc3nc(Nc4ccc(N5CCOCC5)cc4)c4ncn(C5CCCCC5)c4n3)cccc2c1 [PURMORPHAMINE]
EC50 (C3H 10T1/2): 1 µM

Other lines, results leading:

Kd [9]: 18.1 µM
SMILES: NCc1ccc([C@H]2O[C@@H](CSc3nc(-c4ccccc4)c(-c4ccccc4)o3)[C@H](c3ccccc3)[C@@H](c3ccc(CO)cc3)O2)cc1 [URETUPAMINE A]

Kd [9]: 7.5 µM
SMILES: NCc1ccc([C@H]2O[C@@H](CSc3nc(-c4ccccc4)c(-c4ccccc4)o3)C[C@@H](c3ccc(CO)cc3)O2)cc1 [URETUPAMINE B]
